Measured values reported in patent US20120035161A1, “Novel Compositions and Methods of Treating Diseases Using the Same” (CORRIDOR PHARMACEUTICALS, INC., priority 2006, published 2012).
“And” between values parts separate entries of the source, which are not always exact repeats. Equal values may be shown once.

Tests used:
[1] = system: cryopreserved mixed gender human hepatocytes; experiment: Hepatocyte stability assay; type: in vitro ADME; details: 5 μM test compound
Description: Test compounds (5 μM) were incubated with cryopreserved mixed gender human hepatocytes pooled from at least 3 donors. Cell viability of hepatocytes was assessed by a Trypan Blue assay prior to the initiation of the stability assay. The final hepatocyte cell density was 1.5×10^6 viable cells/mL, Samples were taken at 2 time points: 0 and 60 minutes. As positive controls, testosterone (20 μM) and 7-hydroxy-coumarin (100 μM) were incubated and sampled at 5 time points: 0, 15, 30, 60, and 120 minutes. Aliquots were removed and combined (50/50) with acetonitrile to terminate the reaction. Samples were mixed for 10 minutes and centrifuged. The supernatants were transferred to vial for analysis by HRMS. In this assay, both test compound and a des-glycine metabolite (M1) are quantified based on peak area response ratios.
The enzymatic activities of the human cryopreserved hepatocytes used in this study were verified in parallel by determining the disappearance of testosterone (expressed as half-life) and the formation of 7-hydroxycoumarin glucuronide and 7-hydroxycoumarin sulfate (expressed as a formation rate).

[2] = system: Serotonin (5-Hydroxytryptamine) 5-HT2, Non-Selective; experiment: Assay 271600 radioligand binding, 5-HT2 non-selective; parameters: species or system Wistar Rat
Description: The methods employed in this study have been adapted from the scientific literature to maximize reliability and reproducibility. Reference standards were run as an integral part of each assay to ensure the validity of the results obtained. Assays were performed under conditions as described below. Where presented, IC50 values were determined by a non-linear, least squares regression analysis using the Data Analysis Toolbox (MDL Information Systems, San Leandro, Calif., USA). Where inhibition constants (Ki) are presented, the Ki values were calculated using the equation of Cheng and Prusoff (Cheng, Y., Prusoff, W. H., Biochem. Pharmacol. 22:3099-3108, 1973) using the observed IC50 of the tested compound, the concentration of radioligand employed in the assay, and historical values for the KD of the ligand. Where presented, the Hill coefficient (nu), defining the slope of the competitive binding curve, was calculated using the Data Analysis Toolbox.

In the case of `NCC(=O)NCCN1CCN(CCCN2c3ccccc3Sc3ccc(C(F)(F)F)cc32)CC1` [ICI-735], the “Relative Level (%)” value ([1]; T = 0 minutes) is reported as 99.5% and 100.5%, the “Peak Areas” value ([1]; T = 60 minutes) is reported as 8.39E+06 and 8.79E+06 and the “Relative Level (%)” value ([1]; T = 60 minutes) is reported as 89.6% and 92.4%. The “% INHIBITION” value ([2]; 0.1 μM) was 62% and the “% INHIBITION” value ([2]; 10 μM) was 91%.
